In paper PMC2933614, “Quantitative in vitro and in vivo pharmacological profile of CE-178253, a potent and selective cannabinoid type 1 (CB1) Receptor Antagonist” (BMC Pharmacology, 2010):
“Also recorded” adds a separate entry of the source. Where two headings read alike, the source gives them in different places.

Tests used:
human CB1 receptor = target: T1, human CB1 receptor (Homo sapiens, UniProt P21554); experiment: Competition radioligand binding, human CB1
T1 construct: expressed in transfected cells
Method: HEK293 (CB1) or CHO (CB1 and CB2) cells (ATCC) were stably transfected with the human CB1 or CB2 receptors. Rat brain, and recombinant CB1 and CB2 and membranes were prepared as described. A Pierce™ BCA kit was used to determine protein concentrations.
10 μg of membranes per well from human CB1 and CB 2 receptor transfected cells and rat brain was used in the assay. The plates were covered and placed in an incubator at 30°C for 60 min. At the end of the incubation period 125 μl of stop buffer (10% BSA plus TME) was added to the reaction plate. The plates were then harvested onto GF/C filter plates (Perkin Elmer Life Sciences) presoaked in BSA (5 mg/ml) plus TME. Each filter was washed twice with TME and dried overnight. In the morning the filters were counted on a Wallac Trilux™ counter.
Saturation and competition radioligand binding assays were used to characterize membranes prepared from human recombinant CB1 and CB2 and rat brain membranes.

human CB1 in CHO cells = target: T2, human CB1 in CHO cells (Homo sapiens, UniProt P21554); experiment: GTPγ[35S] inverse agonist assay; assay type: biochemical
T2 construct: expressed in transfected cells
Method: GTPγ[^35S] binding assays were performed as described. GTPγ[^35S] binding assays were performed in a 96-well FlashPlate™ format in duplicate using 100 pM GTPγ[^35S] and 10 μg membrane per well in assay buffer composed of 50 mM Tris HCl (pH 7.4); 3 mM MgCl2 (pH 7.4); 10 mM MgCl2, 20 mM EGTA, 100 mM NaCl, 30 μM GDP, 0.1% BSA and the following protease inhibitors: 100 μg/ml bacitracin, 100 μg/ml benzamidine, 5 μg/ml aprotinin, and 5 μg/ml leupeptin. […] Assays were performed at 30°C for 1 hr. The FlashPlates™ were then centrifuged at 2000×g for 10 min. Stimulation of GTPγ[^35S] binding was then quantified using a Wallac Microbeta® [16].

GPR55 = GPR55 (Homo sapiens, UniProt Q9Y2T6); experiment: GPR55 functional assay; assay type: biochemical; settings: 10 μM
Excerpt: Rimonabant also binds weakly to the Vanilloid 1 (TRPV1) receptor channel. […] CE-178253 was not evaluated against TRPM8. Rimonabant has been reported to bind to TRPM8 [21].

[1] = Unbound plasma concentration of CE-178253; assay type: in vivo, rat; settings: for Unbound Plasma Concentration (± S-D): indirect calorimetry study; for concentration at […]: Sprague-Dawley, rat, plasma, oral, fast-induced refeeding study, read-out: Unbound Plasma Concentration (± S-D)
Method: Plasma bound fractions for CE-178253 were determined using an equilibrium dialysis assay, as previously described. Spectra-Por 2 membranes (Spectrum Laboratories Inc., Rancho Dominguez, CA) with a molecular cut-off of 12-14 kDa were used for the dialysis. Equilibrium of the system was achieved by incubating the apparatus for 4.5 hr in a 37°C reciprocating water bath (set at 155 rpm). A standard curve was set up over the range 1-1000 ng/mL. All samples were quantified using liquid chromatography/tandem mass spectrometry using a PE Sciex API 3000 spectrometer. For plasma, the unbound fraction was determined as the ratio of concentrations determined in buffer and plasma.

[2] = Plasma to brain concentration ratios (brain impairment); assay type: in vivo; settings: Sprague-Dawley, rat, brain and plasma (unbound and total), oral; mean ± SD over 0.3, 1, 3, 10 mg/kg p.o., n = 3 per dose; read-out: Ratios of unbound plasma and total plasma to unbound brain and total brain concentrations
Core body temperature = assay type: in vivo, mouse; settings: C57BL/6J mice, n = 5 per group
Method: In a separate study, core body temperature was measured in C57BL/6J mice.

[3] = Four day DIO rat food intake and body weight study; assay type: in vivo; settings: 4-day, DIO rats
Method: Male 15 week old S-D rats which had been maintained on a high fat diet (Research Diets, D12079BM, 45% kcal from fat) for 10 weeks were selected for the DIO weight loss study. DIO rats were singly housed were acclimated to handling and dosing and two days of food intake were recorded to establish baseline food intake values before dosing was initiated. The heaviest animals were randomly sorted and assigned to treatment groups (n = 8 per group). The mean starting weight of all animals was 639 ± 8 g. Rats were dosed (2 mls/kg) with veh. or CE-178253 according to body weight. FI and BW were recorded daily.
DIO rats were treated once daily with veh. (0.5% MC) or CE-178253 at doses of 0.3 mg/kg p.o. or 1 mg/kg p.o. in a 4-day study (Figures 6A and 6B). […] The effects on FI were apparent after the first doses and sustained over the 4-day study period. […] In contrast, there was no change in weight in veh-treated rats. Initial and final body weights of veh-treated rats were 643 ± 15 g and 645 ± 14 g, respectively. Initial and final body weights of 0.3 mg/kg CE-178253-treated rats were 632 ± 11 g and 616 ± 12 g, respectively. Initial and final body weights of 1 mg/kg CE-178253-treated rats were 637 ± 11 g and 602 ± 11 g, respectively. A statistically significant difference in BW between veh and the 1 mg/kg dose was observed (p < 0.05).

T2 sequence (P21554 whole entry): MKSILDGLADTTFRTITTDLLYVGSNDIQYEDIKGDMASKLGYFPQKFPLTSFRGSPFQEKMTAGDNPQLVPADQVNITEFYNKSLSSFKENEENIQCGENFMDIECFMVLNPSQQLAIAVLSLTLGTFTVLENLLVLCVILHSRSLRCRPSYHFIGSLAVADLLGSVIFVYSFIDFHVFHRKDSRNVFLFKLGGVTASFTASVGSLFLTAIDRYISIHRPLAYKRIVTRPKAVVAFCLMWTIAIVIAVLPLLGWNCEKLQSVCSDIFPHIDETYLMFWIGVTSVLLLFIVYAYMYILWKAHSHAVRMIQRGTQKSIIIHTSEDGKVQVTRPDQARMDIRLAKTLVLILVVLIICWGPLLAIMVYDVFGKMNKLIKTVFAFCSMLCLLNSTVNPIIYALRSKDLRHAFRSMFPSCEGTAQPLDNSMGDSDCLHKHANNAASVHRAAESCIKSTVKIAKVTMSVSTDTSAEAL
T1 sequence (P21554 whole entry): as above
GPR55, sequence (Q9Y2T6 whole entry, species assumed): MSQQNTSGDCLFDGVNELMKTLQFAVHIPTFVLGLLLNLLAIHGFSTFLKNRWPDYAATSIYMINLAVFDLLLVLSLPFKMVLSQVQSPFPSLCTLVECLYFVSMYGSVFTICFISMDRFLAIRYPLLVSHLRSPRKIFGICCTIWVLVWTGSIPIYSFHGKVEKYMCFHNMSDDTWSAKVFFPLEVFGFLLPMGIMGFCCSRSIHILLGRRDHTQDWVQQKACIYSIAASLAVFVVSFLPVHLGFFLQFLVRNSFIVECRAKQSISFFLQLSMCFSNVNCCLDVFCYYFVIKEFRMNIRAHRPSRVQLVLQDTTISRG

What does the source list for CCNC1(C(N)=O)CN(c2nc(C)nc3c(-c4ccc(Cl)cc4)c(-c4ccccc4Cl)nn23)C1 [CE-178253]?
Concentration giving complete inhibition of [3H]SR141716A binding (human CB1 receptor; not shown): greater than 10 nM; Ki (human CB1 receptor; read-out: Ki, competition binding, hCB1): 0.33 ± 0.07 nM; Inverse agonist potency weaker than binding potency (human CB1 in CHO cells): 6 fold; Inverse agonist potency weaker than functional potency (human CB1 in CHO cells): 29 fold; IC50 (human CB1 in CHO cells; decrease in basal GTPγ[35S] binding): 2 ± 0.56 nM; Emax (human CB1 in CHO cells; percent decrease in basal GTPγ[35S] binding, read-out: Intrinsic Activity): 21%; Agonist activity at GPR55 (GPR55): No agonist activity was detected; also recorded: GPR55 (no activity at 10 μM); Unbound Plasma Concentration (± S-D) ([1]; 1 mg/kg p.o.): 0.8 ± 0.2 nM; Unbound Plasma Concentration (± S-D) ([1]; 3 mg/kg p.o.): 3.8 ± 0.9 nM; concentration at […] ([1]; 0.3 mg/kg p.o.): 0.17 ± 0.02 nM; concentration at […] ([1]; 1 mg/kg p.o.): 1 ± 0.3 nM; concentration at […] ([1]; 3 mg/kg p.o.): 2.7 ± 1 nM; concentration at […] ([1]; 10 mg/kg p.o.): 15.6 ± 1.6 nM; Plasma-to-brain concentration ratio at […] [2]: 2.9 ± 0.25; Increase in core body temperature compared to veh (Core body temperature; 1 mg/kg): 0.7 ± 0.3 °C; Increase in core body temperature compared to veh (Core body temperature; 3 mg/kg): 1.2 ± 0.3 °C; Decrease in body weight compared to veh ([3]; 0.3 mg/kg p.o. once daily): 3.3%; Final body weight ([3]; 0.3 mg/kg, initial 632 ± 11 g): 616 ± 12 g; Decrease in body weight compared to veh ([3]; 1 mg/kg p.o. once daily): 5.9%; Final body weight ([3]; 1 mg/kg, initial 637 ± 11 g): 602 ± 11 g
